From patent US12036215B2, “Antitumor agent and method for tumor therapy” (TAIHO PHARMACEUTICAL CO., LTD., priority 2018, dated 2024)

How the values were obtained:
tumor = settings: rats, 24 hours later MK-5108 orally twice per day for 2 days; cited from earlier work
[1] = test system: small-cell lung cancer (SCLC); settings: paclitaxel once per week; MLN8237 twice per day for 3 days, 4 days off; cited from earlier work
Aurora A = biological target: T1, Aurora A (Homo sapiens, UniProt O14965); settings: cited from earlier work
T1 sequence (O14965 1-403): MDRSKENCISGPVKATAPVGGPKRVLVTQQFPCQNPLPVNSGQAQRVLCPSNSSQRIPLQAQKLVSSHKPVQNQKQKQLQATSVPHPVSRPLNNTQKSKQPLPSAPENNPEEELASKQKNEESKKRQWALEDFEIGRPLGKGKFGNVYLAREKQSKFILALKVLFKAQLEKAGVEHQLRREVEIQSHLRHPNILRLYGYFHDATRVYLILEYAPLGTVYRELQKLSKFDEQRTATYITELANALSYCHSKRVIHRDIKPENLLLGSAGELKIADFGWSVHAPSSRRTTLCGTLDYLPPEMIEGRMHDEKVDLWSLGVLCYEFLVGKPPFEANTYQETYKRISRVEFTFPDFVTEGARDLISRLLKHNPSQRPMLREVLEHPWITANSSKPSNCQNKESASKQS

[2] = Phase 1 clinical dose escalation trial with paclitaxel: safety, dose-limiting toxicity; type: in vivo, human
Protocol: (§1) Paclitaxel and compound I in the form of hydrochloride were administered to cancer patients and evaluated for safety and efficacy. This study was conducted targeting solid cancer patients for whom a standard treatment is not effective, or a treatment is not present. Cancers found to affect the patients included the carcinoma shown in FIG. 3 (urothelial cancer, adrenal cancer, pancreatic cancer, colon cancer, cervical cancer, bile duct cancer, hepatocellular carcinoma, prostate cancer, head and neck cancer, ovarian cancer, gallbladder cancer, non-small cell lung cancer, parotid gland cancer, breast cancer, and fallopian tube cancer). This study also corresponds to a phase 1 clinical dose escalation trial for mainly evaluating safety and determining a recommended dose (RD), that can be administered safely without a concerned side effect in a phase 1 clinical expansion cohort test to be performed on a carcinoma basis.
(§2) A weekly administration regimen was adopted to paclitaxel, in which paclitaxel was administered once per week for 3 weeks, followed by cessation of the drug for 1 week. This administration method is a standard paclitaxel administration regimen and is widely used in clinical practice. On the other hand, the compound I was administered twice per day for 2 or 3 or 4 days from the same day as paclitaxel administration or 1 day after paclitaxel administration; this regimen was performed for 3 weeks together with the weekly paclitaxel administration; and week 4 was set to cessation of the compound I, in accordance with the cessation of paclitaxel. Each administration schedule (dose level) was evaluated from results of administration to 2 to 7 patients.

solid cancer = experiment: Phase 1 clinical dose escalation trial with paclitaxel: tumor reduction effect (RECIST); type: in vivo, human; settings: for cases in which a tumor reduction effect was observed: equal dose per day
Protocol: as §1
In addition to the evaluation of safety, a therapeutic effect on tumor was also evaluated, if possible. The therapeutic effect on tumor was determined as a tumor reduction effect by comprehensive evaluation of target lesions (lesions equal to or larger than a measurable size according to a slice width by CT, etc.) and non-target lesions (all lesions other than the target lesions) with reference to the RECIST evaluation method (Journal of the National Cancer Institute, 2000, Vol 92, No. 3, 205-216J). The dose of the compound I is a weight based on free form.
In this study, PR (partial response) refers to 30% or more decrease in the sum of the major axis of target lesions, compared to that before administration. PD (progressive disease) refers to 20% or more relative increase in the sum of the major axis of target lesions, compared to the smallest sum of the major axis recorded after the start of the study, 5 mm or more absolute increase in the sum of the major axis, or apparent exacerbation of existing non-target lesions or a new lesion. SD (stable disease) refers to insufficient tumor reduction to qualify for PR and insufficient increase to qualify for PD, without progression and exacerbation of tumor, compared to the smallest sum of the major axis recorded after the start of the study.
as §2

[3] = in vivo; cited from earlier work
[4] = test system: Human-derived uterus cancer cell line HeLa-luc; experiment: Schedule study of combined use of compound I and paclitaxel in HeLa-luc grafted nude rats; type: in vivo; settings: group 1: paclitaxel 10 mg/kg i.v. on day 1 alone; 5 rats
Excerpt: Human-derived uterus cancer cell line HeLa-luc (PerkinElmer, Inc.) cells transfected with luciferase gene were subcutaneously grafted at 1×10^7 cells to the right abdomens of nude rats (lineage: F344/NJcl-rnu/rnu, female, distributor: CLEA Japan, Inc.). When the volume of the grafted tumor reached approximately 200 mm^3, the rats were divided into groups each consisting of 5 rats according to stratified randomization such that each group had almost the same tumor volume.
To group 1, paclitaxel (10 mg/kg) alone was intravenously administered on day 1. To groups 2 to 5, paclitaxel was administered and, on the next day, the hydrochloride of the compound I (30 mg/kg, based on free form) obtained in Reference Example 1 was orally administered twice per day for 1 day, 2 days, 3 days or 4 days (Sequential treatment; see FIG. 1). […]
The presence or absence of a therapeutic effect was determined by measuring the major axis and minor axis of tumor with time and calculating a tumor volume (TV), relative tumor volume (RTV) and T/C (%) value (average relative tumor volume ratio of the treatment group to the control group) on day 10 after initiation of administration, according to the following formulas. […]

In the case of `O=C(O)[C@]1(Cc2cccc(Nc3nccs3)n2)CC[C@@H](Oc2cccc(Cl)c2F)CC1` [MK-5108], the “effect on side effect of docetaxel” value (tumor) is listed as “without exacerbating the side effect of docetaxel” and the “effect on tumor reduction effect of docetaxel” value (tumor) is listed as “tumor reduction effect of docetaxel is enhanced”.

For `COc1cc(Nc2ncc3c(n2)-c2ccc(Cl)cc2C(c2c(F)cccc2OC)=NC3)ccc1C(=O)O` [alisertib], the adverse events [1] is listed as “serious adverse events such as neutropenia was found” and the “efficacy in combination with paclitaxel” value [1] is listed as “effective for small-cell lung cancer”.

In the case of `Cc1cc(Nc2nc(CC3(C(=O)O)CCN(C(=O)c4cccc(Cl)c4Cl)CC3)ccc2F)n[nH]1` [compound I, 1-(2,3-dichlorobenzoyl)-4-[5-fluoro-6-(5-methyl-1H-pyrazol-3-ylamino)pyridin-2-yl]methyl-4-piperidinecarboxylic acid], the “Aurora A selective inhibitory activity” value (Aurora A) is given as “excellent”, the “patients with dose-limiting toxicity (DLT)” value ([2]; DL1: paclitaxel 90 mg/m^2/day weekly, compound I 25 mg/dose twice per day for 4 days from same day as paclitaxel, 3 weeks) is given as “two out of three” and the “tolerability determination of the dose level” value (“tolerability determination” for short) ([2]; DL1: paclitaxel 90 mg/m^2/day, compound I 25 mg/dose twice per day for 4 days) is given as “exceed the maximum tolerable dose”. The “tolerability determination” value ([2]; DL2: paclitaxel 70 mg/m^2/day, compound I for 2 days) was “tolerable”, the “patients with dose-limiting toxicity (DLT)” value ([2]; DL2: paclitaxel 70 mg/m^2/day, compound I for 2 days from 1 day after paclitaxel) was “not observed in any of three cases” and the “tolerability determination” value ([2]; DL6: paclitaxel 80 mg/m^2/day, compound I 75 mg per dose twice per day for 3 days) was “most suitable as the maximally tolerated dose”. The “patients with grade 3 or higher dose-limiting toxicity” value ([2]; DL6: paclitaxel 80 mg/m^2/day, compound I 75 mg per dose twice per day for 3 days from day following paclitaxel) was “not observed in any of seven cases”, the “tolerability determination” value ([2]; DL7: paclitaxel 80 mg/m^2/day, compound I 100 mg per dose twice per day for 3 days) was “exceed the maximum tolerable dose” and the “patients with dose-limiting toxicity (DLT)” value ([2]; DL7: paclitaxel 80 mg/m^2/day, compound I 100 mg per dose twice per day for 3 days from day following paclitaxel) was “two out of three”. For the same molecule, the tolerability ([2]; compound I 2 consecutive days, 75 mg per dose, total 300 mg per week, with paclitaxel) was “tolerable without the dose-limiting toxicity”, the “patients in which a tumor reduction effect was observed” value (solid cancer; 2 on 5 off schedule, 6 out of 12 patients, with paclitaxel) was 50% and the “cases that had PR” value (solid cancer; 2 on 5 off schedule, one out of 12 cases, with paclitaxel) was 8.3%. The “cases that manifested PR” value (solid cancer; 3 on 4 off schedule (dose levels 6 and 7), 3 out of 8 cases, with paclitaxel) was 38%, the “patients in which a tumor reduction effect was observed” value (solid cancer; 3 on 4 off schedule, 7 out of 8 patients, with paclitaxel) was 88% and the “number of patients with PR (partial response)” value (solid cancer; all dose levels, 22 evaluable cases, combination with paclitaxel) was 5. For the same molecule, the “cases in which a tumor reduction effect was observed” value (solid cancer; 2 on 5 off (dose level 5), 1 out of 3 cases, with paclitaxel) was 33%, the “cases in which a tumor reduction effect was observed” value (solid cancer; 3 on 4 off (dose level 6), 4 out of 5 cases, with paclitaxel) was 80% and the oral absorbability [3] was “excellent in oral absorbability”.

In the case of `CC(=O)O[C@H]1C(=O)[C@@]2(C)[C@H]([C@H](OC(=O)c3ccccc3)[C@]3(O)C[C@H](OC(=O)[C@H](O)[C@@H](NC(=O)c4ccccc4)c4ccccc4)C(C)=C1C3(C)C)[C@]1(OC(C)=O)CO[C@@H]1C[C@@H]2O` [paclitaxel], the “number of CR (complete remission) cases” value [4] is reported as “no CR cases were observed”.
